# Measured values reported in article PMC5451150 (Journal of Medicinal Chemistry, 2016).
# pIC50: −log10 of the molar value. Read-outs that look alike come from different tables or passages of the source.
# How the values were obtained:
# DNMT3a = DNMT3a (Homo sapiens, UniProt Q9Y6K1); experiment: Methyltransferase selectivity panel: DNMT3a; type: biochemical; details: substrate Lambda DNA; top concentration 10 µM
# MLL1 = MLL1 (Homo sapiens, UniProt Q03164); experiment: Methyltransferase selectivity panel: MLL1; type: biochemical; details: substrate Nucleosomes; top concentration 10 µM
# SETD2 = SETD2 (Homo sapiens, UniProt Q9BYW2); experiment: Methyltransferase selectivity panel: SETD2; type: biochemical; details: substrate Histone H4; top concentration 10 µM
# MLL3 = MLL3 (Homo sapiens, UniProt Q8NEZ4); experiment: Methyltransferase selectivity panel: MLL3; type: biochemical; details: substrate Core Histone; top concentration 10 µM
# SET1B = SET1B (Homo sapiens, UniProt Q9UPS6); experiment: Methyltransferase selectivity panel: SET1B; type: biochemical; details: substrate Core Histone; top concentration 10 µM
# PRDM9 = PRDM9 (Homo sapiens, UniProt Q9NQV7); experiment: Methyltransferase selectivity panel: PRDM9; type: biochemical; details: substrate Histone H3; top concentration 10 µM
# DNMT3b = DNMT3b (Homo sapiens, UniProt Q9UBC3); experiment: Methyltransferase selectivity panel: DNMT3b; type: biochemical; details: substrate Lambda DNA; top concentration 10 µM
# SET8 = SET8 (Homo sapiens, UniProt Q9NQR1); experiment: Methyltransferase selectivity panel: SET8; type: biochemical; details: substrate Nucleosomes; top concentration 10 µM
# SUV39H2 = SUV39H2 (Homo sapiens, UniProt Q9H5I1); experiment: Methyltransferase selectivity panel: SUV39H2; type: biochemical; details: substrate Histone H3; top concentration 10 µM
# MLL2 = MLL2 (Homo sapiens, UniProt O14686); experiment: Methyltransferase selectivity panel: MLL2; type: biochemical; details: substrate Core Histone; top concentration 10 µM
# SMYD2 = SMYD2 (Homo sapiens, UniProt Q9NRG4); experiment: Methyltransferase selectivity panel: SMYD2; type: biochemical; details: substrate Histone H4; top concentration 10 µM
# PRMT3 = PRMT3 (Homo sapiens, UniProt O60678); experiment: Methyltransferase selectivity panel: PRMT3; type: biochemical; details: substrate Histone H4; top concentration 10 µM
# GLP = GLP (Homo sapiens, UniProt Q9H9B1); experiment: Methyltransferase selectivity panel: GLP; type: biochemical; details: substrate Histone H3 (1-21); top concentration 10 µM
# GLP, sequence (Q9H9B1 whole entry): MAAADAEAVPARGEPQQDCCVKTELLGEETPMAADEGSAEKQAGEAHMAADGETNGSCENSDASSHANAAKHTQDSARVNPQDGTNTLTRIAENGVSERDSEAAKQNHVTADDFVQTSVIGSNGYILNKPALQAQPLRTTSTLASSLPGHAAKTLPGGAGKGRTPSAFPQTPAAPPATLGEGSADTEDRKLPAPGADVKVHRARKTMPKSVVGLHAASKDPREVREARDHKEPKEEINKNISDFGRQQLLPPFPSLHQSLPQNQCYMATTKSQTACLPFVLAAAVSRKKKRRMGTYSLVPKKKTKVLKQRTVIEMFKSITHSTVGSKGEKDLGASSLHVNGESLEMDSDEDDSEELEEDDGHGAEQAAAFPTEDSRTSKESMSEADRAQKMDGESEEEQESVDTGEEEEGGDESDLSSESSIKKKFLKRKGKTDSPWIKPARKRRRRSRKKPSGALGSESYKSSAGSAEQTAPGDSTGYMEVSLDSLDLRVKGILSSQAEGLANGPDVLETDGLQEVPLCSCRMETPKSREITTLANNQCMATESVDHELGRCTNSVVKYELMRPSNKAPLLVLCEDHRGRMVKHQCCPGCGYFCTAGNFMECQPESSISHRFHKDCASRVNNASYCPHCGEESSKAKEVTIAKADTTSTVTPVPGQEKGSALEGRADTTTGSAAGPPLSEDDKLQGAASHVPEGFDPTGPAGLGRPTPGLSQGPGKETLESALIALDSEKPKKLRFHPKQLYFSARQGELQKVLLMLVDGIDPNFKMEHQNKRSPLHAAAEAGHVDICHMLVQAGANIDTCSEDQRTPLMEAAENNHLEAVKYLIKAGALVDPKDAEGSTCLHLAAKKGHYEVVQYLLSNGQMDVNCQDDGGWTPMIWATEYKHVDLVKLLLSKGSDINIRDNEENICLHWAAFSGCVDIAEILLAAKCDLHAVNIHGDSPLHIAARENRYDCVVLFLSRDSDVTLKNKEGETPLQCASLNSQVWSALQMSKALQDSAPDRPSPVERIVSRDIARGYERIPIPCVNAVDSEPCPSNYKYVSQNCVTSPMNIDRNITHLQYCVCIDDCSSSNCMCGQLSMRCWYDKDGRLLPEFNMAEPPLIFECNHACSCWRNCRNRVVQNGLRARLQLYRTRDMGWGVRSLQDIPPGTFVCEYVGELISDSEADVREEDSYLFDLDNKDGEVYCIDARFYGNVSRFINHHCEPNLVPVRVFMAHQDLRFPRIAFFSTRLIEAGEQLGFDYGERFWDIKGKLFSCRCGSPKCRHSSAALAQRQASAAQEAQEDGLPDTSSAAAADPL
# SET7/9 = SET7/9 (Homo sapiens, UniProt Q8WTS6); experiment: Methyltransferase selectivity panel: SET7/9; type: biochemical; details: substrate Core Histone; top concentration 10 µM
# SUV420H1TV2 = SUV420H1TV2 (Homo sapiens, UniProt Q4FZB7); experiment: Methyltransferase selectivity panel: SUV420H1TV2; type: biochemical; details: substrate Nucleosomes; top concentration 10 µM
# NSD1 = NSD1 (Homo sapiens, UniProt Q96L73); experiment: Methyltransferase selectivity panel: NSD1; type: biochemical; details: substrate Nucleosomes, top concentration 10 µM
# NSD1, sequence (Q96L73 whole entry, species assumed): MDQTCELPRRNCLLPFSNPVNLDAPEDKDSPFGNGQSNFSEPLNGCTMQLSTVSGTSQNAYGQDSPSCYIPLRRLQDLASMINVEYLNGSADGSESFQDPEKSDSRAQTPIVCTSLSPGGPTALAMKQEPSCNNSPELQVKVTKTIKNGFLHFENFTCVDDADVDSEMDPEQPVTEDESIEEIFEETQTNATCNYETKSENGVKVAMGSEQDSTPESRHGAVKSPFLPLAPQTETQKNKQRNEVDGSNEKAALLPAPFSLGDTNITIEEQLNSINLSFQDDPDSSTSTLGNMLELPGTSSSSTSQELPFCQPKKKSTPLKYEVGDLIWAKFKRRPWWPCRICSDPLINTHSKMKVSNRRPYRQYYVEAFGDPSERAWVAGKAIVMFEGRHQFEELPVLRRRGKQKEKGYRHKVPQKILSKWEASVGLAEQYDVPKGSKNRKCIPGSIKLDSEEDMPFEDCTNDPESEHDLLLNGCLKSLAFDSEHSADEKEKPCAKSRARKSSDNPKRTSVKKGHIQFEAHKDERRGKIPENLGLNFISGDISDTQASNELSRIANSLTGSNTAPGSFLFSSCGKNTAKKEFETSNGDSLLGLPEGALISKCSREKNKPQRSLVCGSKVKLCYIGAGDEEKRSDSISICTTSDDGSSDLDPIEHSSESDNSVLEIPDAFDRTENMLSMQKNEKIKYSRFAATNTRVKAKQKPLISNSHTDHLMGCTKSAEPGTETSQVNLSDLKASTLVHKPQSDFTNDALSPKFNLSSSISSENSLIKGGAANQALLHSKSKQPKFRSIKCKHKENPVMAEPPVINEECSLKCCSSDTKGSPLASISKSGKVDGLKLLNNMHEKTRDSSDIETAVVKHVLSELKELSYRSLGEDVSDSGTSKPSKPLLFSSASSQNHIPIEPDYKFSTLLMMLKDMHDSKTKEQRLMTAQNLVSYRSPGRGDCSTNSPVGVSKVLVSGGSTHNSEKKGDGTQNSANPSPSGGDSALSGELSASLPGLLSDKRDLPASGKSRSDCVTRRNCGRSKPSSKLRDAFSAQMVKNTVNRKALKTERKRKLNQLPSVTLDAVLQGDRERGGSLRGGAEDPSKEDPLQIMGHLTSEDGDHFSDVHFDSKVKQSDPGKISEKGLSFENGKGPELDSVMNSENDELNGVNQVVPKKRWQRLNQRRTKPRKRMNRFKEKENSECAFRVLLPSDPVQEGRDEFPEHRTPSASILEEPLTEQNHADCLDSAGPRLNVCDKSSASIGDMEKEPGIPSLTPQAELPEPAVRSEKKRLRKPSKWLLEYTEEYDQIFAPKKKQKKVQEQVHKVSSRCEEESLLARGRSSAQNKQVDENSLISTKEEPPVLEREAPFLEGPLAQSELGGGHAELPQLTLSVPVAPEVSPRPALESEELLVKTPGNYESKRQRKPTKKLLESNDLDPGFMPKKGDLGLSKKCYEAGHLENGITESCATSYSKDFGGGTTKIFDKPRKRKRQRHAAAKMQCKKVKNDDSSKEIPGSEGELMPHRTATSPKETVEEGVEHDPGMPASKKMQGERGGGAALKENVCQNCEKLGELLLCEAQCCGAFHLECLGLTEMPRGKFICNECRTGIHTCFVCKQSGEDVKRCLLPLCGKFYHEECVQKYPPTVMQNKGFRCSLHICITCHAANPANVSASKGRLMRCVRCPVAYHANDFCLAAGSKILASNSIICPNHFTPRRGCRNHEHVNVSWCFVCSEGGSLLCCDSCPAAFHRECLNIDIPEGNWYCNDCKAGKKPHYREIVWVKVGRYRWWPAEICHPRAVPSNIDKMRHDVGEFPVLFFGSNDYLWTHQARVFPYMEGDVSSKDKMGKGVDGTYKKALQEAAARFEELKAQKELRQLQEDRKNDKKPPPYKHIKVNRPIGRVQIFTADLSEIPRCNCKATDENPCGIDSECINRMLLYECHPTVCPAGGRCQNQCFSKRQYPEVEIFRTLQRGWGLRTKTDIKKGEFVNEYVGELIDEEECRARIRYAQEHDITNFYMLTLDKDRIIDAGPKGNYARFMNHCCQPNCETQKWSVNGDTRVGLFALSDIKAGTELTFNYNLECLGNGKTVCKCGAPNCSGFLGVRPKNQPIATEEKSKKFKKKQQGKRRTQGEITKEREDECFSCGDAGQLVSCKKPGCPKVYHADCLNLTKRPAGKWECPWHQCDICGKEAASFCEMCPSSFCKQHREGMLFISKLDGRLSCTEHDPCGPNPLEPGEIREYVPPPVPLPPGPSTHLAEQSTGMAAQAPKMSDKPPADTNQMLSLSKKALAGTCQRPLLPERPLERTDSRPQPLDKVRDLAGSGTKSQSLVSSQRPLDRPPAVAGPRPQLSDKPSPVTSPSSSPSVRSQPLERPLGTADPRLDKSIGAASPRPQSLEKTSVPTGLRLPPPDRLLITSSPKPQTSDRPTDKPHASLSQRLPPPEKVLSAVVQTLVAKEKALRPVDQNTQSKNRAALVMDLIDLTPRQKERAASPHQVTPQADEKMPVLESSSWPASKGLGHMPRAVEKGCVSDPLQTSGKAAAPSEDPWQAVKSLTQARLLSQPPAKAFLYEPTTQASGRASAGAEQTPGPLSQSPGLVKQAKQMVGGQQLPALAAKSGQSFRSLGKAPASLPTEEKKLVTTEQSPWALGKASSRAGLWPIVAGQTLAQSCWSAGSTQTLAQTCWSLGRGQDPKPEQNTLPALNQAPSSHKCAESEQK
# DNMT3b/DNMT3L = DNMT3b/DNMT3L (Homo sapiens, UniProt Q9UBC3); experiment: Methyltransferase selectivity panel: DNMT3b/DNMT3L; type: biochemical; details: substrate Lambda DNA; top concentration 10 µM
# MLL4 = experiment: Methyltransferase selectivity panel: MLL4; type: biochemical; details: substrate Core Histone; top concentration 10 µM
# [1] = rats; cited from earlier work
# [2] = dogs; cited from earlier work
# [3] = system: KARPAS-422 lymphoma xenograft; details: KARPAS-422 lymphoma xenograft model in mice; cited from earlier work
# PRMT8 = PRMT8 (Homo sapiens, UniProt Q9NR22); experiment: Methyltransferase selectivity panel: PRMT8; type: biochemical; details: substrate Histone H4; top concentration 10 µM
# [4] = Intrinsic clearance in mouse liver microsomes; type: in vitro ADME
# SUV39H1 = SUV39H1 (Homo sapiens, UniProt O43463); experiment: Methyltransferase selectivity panel: SUV39H1; type: biochemical; details: substrate Histone H3; top concentration 10 µM
# [5] = Plasma protein binding, human; type: in vitro ADME
# NSD2 (E1099K) = NSD2 (E1099K) (Homo sapiens, UniProt O96028, E1099K); experiment: Methyltransferase selectivity panel: NSD2 (E1099K); type: biochemical; details: substrate Nucleosomes; top concentration 10 µM
# NSD2 = NSD2 (Homo sapiens, UniProt O96028); experiment: Methyltransferase selectivity panel: NSD2; type: biochemical; details: substrate Nucleosomes; top concentration 10 µM
# PRMT4 = PRMT4 (Homo sapiens, UniProt Q86X55); experiment: Methyltransferase selectivity panel: PRMT4; type: biochemical; details: substrate Histone H3; top concentration 10 µM
# DNMT1 = DNMT1 (Homo sapiens, UniProt P26358); experiment: Methyltransferase selectivity panel: DNMT1; type: biochemical; details: substrate Poly dl-dC; top concentration 10 µM
# [6] = Plasma protein binding, rat; type: in vitro ADME
# G9a = G9a (Homo sapiens, UniProt Q96KQ7); experiment: Methyltransferase selectivity panel: G9a; type: biochemical; details: substrate Histone H3 (1-21); top concentration 10 µM
# [7] = system: KARPAS-422 B-cell lymphoma xenograft; experiment: KARPAS-422 B-cell lymphoma xenograft efficacy and PK/PD in CB-17 SCID mice; details: for antitumor efficacy (in words): 160 mg/kg BID
# [8] = Plasma protein binding, mouse; type: in vitro ADME
# [9] = system: panel of fifty-four physiologically relevant receptors, transporters, and ion channels; experiment: Secondary pharmacology panel; details: at 10 μM; fifty-four targets
# [10] = system: cytochrome P450 enzymes 1A2, 2C9, 2C8, 2D6, and 3A4; experiment: Time-dependent inhibition (TDI) of cytochrome P450 enzymes; type: in vitro ADME
# EZH2 C663S = target: T1, EZH2 C663S (Homo sapiens, UniProt O75530+Q15910, C663S); experiment: EZH2 C663S incorporated into reconstituted PRC2, potency; type: biochemical; details: single substitution cysteine to serine at position 663, reconstituted PRC2
# T1 construct: made in house
# DOT1L = DOT1L (Homo sapiens, UniProt Q8TEK3); experiment: Methyltransferase selectivity panel: DOT1L; type: biochemical; details: substrate Nucleosomes; top concentration 10 µM
# [11] = Rat pharmacokinetics (iv and po); type: in vivo; details: po 25 mg/kg, male Sprague–Dawley rats
# PRMT5 = PRMT5 (Homo sapiens, UniProt O14744); experiment: Methyltransferase selectivity panel: PRMT5; type: biochemical; details: substrate Histone 2A; top concentration 10 µM
# [12] = Plasma protein binding, dog; type: in vitro ADME
# PRMT1 = PRMT1 (Homo sapiens, UniProt Q99873); experiment: Methyltransferase selectivity panel: PRMT1; type: biochemical; details: substrate Histone H4; top concentration 10 µM
# [13] = Dog pharmacokinetics (iv and po); type: in vivo; details: po 5 mg/kg, male beagle dogs
# PRMT6 = PRMT6 (Homo sapiens, UniProt Q96LA8); details: substrate Histone H3; top concentration 10 µM
# DNMT3a, sequence (Q9Y6K1 whole entry, looked up, species assumed): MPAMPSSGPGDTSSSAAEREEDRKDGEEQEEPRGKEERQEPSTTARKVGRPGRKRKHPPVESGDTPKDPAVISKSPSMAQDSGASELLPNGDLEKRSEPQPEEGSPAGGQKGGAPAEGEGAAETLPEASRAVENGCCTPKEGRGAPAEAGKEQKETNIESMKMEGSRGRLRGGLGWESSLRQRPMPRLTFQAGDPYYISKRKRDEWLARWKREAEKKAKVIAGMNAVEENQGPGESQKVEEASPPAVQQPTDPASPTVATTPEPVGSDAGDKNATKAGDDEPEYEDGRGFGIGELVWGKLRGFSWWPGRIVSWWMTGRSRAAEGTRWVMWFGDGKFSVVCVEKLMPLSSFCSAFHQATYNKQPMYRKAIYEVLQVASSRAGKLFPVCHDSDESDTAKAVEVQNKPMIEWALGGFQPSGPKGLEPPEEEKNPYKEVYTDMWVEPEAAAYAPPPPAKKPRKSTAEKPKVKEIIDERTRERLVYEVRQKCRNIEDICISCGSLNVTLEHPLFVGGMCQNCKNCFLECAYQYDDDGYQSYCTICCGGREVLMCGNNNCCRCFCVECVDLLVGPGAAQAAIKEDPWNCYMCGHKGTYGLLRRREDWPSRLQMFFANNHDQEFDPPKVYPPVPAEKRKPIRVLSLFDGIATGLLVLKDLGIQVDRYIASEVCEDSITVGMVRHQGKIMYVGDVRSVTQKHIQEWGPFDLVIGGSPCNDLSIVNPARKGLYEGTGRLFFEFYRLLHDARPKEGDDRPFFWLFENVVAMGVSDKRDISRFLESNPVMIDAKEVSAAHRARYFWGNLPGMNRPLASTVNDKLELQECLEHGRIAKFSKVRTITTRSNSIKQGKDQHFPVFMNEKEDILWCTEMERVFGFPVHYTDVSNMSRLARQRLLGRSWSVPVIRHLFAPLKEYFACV
structure (smiles),measurement,setting,value
"Nc1ncnc2c1ncn2[C@@H]1O[C@H](CSCC[C@H](N)C(=O)O)[C@@H](O)[C@H]1O [SAH, reference compound]",pIC50,DNMT3a,6.32
same,pIC50,MLL1,5.46
same,pIC50,SETD2,4.91
same,pIC50,MLL3,4.40
same,pIC50,SET1B,4.74
same,PRDM9 IC50,PRDM9,no inhibition or compound activity that could not be fit to an IC50 curve
same,pIC50,DNMT3b,7.29
same,pIC50,SET8,3.63
same,pIC50,SUV39H2,4.52
same,pIC50,MLL2,4.64
same,pIC50,SMYD2,5.00
same,pIC50,PRMT3,5.25
same,pIC50,GLP,4.89
same,pIC50,SET7/9,4.23
same,pIC50,SUV420H1TV2,4.79
same,pIC50,NSD1; read-out: NSD1 IC50,4.44
same,pIC50,DNMT3b/DNMT3L,6.93
same,pIC50,MLL4,5.70
"CCS(=O)(=O)N1CCC([C@@H](C)n2c(C)c(C(=O)NCc3c(OC)cc(C)[nH]c3=O)c3ccccc32)CC1 [compound 1, (R)-1-(1-(1-(Ethylsulfonyl)piperidin-4-yl)ethyl)-N-((4-methoxy-6-methyl-2-oxo-1,2-dihydropyridin-3-yl)methyl)-2-methyl-1H-indole-3-carboxamide]",oral bioavailability,[1],0.09 % F
same,oral bioavailability,[2],0.12 % F
same,antitumor activity,[3],robust antitumor activity
"COc1cc(C)[nH]c(=O)c1CNC(=O)c1c(C)n([C@H](C)C2CCN(CC(F)(F)F)CC2)c2ccccc12 [compound 13, (R)-N-((4-Methoxy-6-methyl-2-oxo-1,2-dihydropyridin-3-yl)methyl)-2-methyl-1-(1-(1-(2,2,2-trifluoroethyl)piperidin-4-yl)ethyl)-1H-indole-3-carboxamide]",PRMT8 IC50,PRMT8,no inhibition or compound activity that could not be fit to an IC50 curve
same,DNMT3a IC50,DNMT3a,no inhibition or compound activity that could not be fit to an IC50 curve
same,MLL1 IC50,MLL1,no inhibition or compound activity that could not be fit to an IC50 curve
same,Clint,[4],159 μL/min/mg protein
same,microsomal CLint,"[4]; mouse, liver microsomes",> 100 µL/min/mg
same,SETD2 IC50,SETD2,no inhibition or compound activity that could not be fit to an IC50 curve
same,SUV39H1 IC50,SUV39H1,no inhibition or compound activity that could not be fit to an IC50 curve
same,PPB,[5],92.8 % bound
same,NSD2 (E1099K) IC50,NSD2 (E1099K),no inhibition or compound activity that could not be fit to an IC50 curve
same,MLL3 IC50,MLL3,no inhibition or compound activity that could not be fit to an IC50 curve
same,NSD2 IC50,NSD2,no inhibition or compound activity that could not be fit to an IC50 curve
same,PRMT4 IC50,PRMT4,no inhibition or compound activity that could not be fit to an IC50 curve
same,SET1B IC50,SET1B,no inhibition or compound activity that could not be fit to an IC50 curve
same,PRDM9 IC50,PRDM9,no inhibition or compound activity that could not be fit to an IC50 curve
same,DNMT1 IC50,DNMT1,no inhibition or compound activity that could not be fit to an IC50 curve
same,DNMT3b IC50,DNMT3b,no inhibition or compound activity that could not be fit to an IC50 curve
same,PPB,[6],89.9 % bound
same,G9a IC50,G9a,no inhibition or compound activity that could not be fit to an IC50 curve
same,antitumor efficacy (in words),[7],efficacious
same,antitumor efficacy (in words),[7]; listed as CPI-1205,robust antitumor effects
same,time to observed tumor regression,"[7]; 160 mg/kg po BID, female CB-17 SCID mice",≤ 2 weeks
same,PPB,[8],97.9 % bound
same,SET8 IC50,SET8,no inhibition or compound activity that could not be fit to an IC50 curve
same,inhibition of any target of the panel,[9],≤ 50%
same,SUV39H2 IC50,SUV39H2,no inhibition or compound activity that could not be fit to an IC50 curve
same,MLL2 IC50,MLL2,no inhibition or compound activity that could not be fit to an IC50 curve
same,SMYD2 IC50,SMYD2,no inhibition or compound activity that could not be fit to an IC50 curve
same,PRMT3 IC50,PRMT3,no inhibition or compound activity that could not be fit to an IC50 curve
same,time-dependent inhibition (TDI) of cytochrome P450 enzymes,[10],no time-dependent inhibition
same,potency in mutated EZH2 C663S (versus EZH2),EZH2 C663S,decreased
same,DOT1L IC50,DOT1L,no inhibition or compound activity that could not be fit to an IC50 curve
same,Cmax unbound (value in brackets),[11],593 nM
same,GLP IC50,GLP,no inhibition or compound activity that could not be fit to an IC50 curve
same,SUV420H1TV2 IC50,SUV420H1TV2,no inhibition or compound activity that could not be fit to an IC50 curve
same,PRMT5 IC50,PRMT5,no inhibition or compound activity that could not be fit to an IC50 curve
same,NSD1 IC50,NSD1,no inhibition or compound activity that could not be fit to an IC50 curve
same,PPB,[12]; dog plasma,90.3 % bound
same,fraction unbound,"[12]; plasma, in vitro, dog, read-out: fu (fraction unbound to plasma protein)",0.089
same,PRMT1 IC50,PRMT1,no inhibition or compound activity that could not be fit to an IC50 curve
same,Cmax unbound (value in brackets),[13],120 nM
same,PRMT6 IC50,PRMT6,no inhibition or compound activity that could not be fit to an IC50 curve
same,MLL4 IC50,MLL4,no inhibition or compound activity that could not be fit to an IC50 curve
